# What was measured:
# CDK2 [1] = target: T1, CDK2 (Homo sapiens, UniProt P24941); assay: Inhibition of CDK2: phospho-Rb (S807/811) HTRF measurement in OVCAR3 cells, 24 h; format: cell-based; conditions: 24 h compound treatment, read-out: pRB_OVCAR3_24h
# T1 construct: High-Throughput Measurement of Cellular Endogenous CDK2; endogenous in cells; host or cells: OVCAR3
# Method in brief: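 IC50 came from a four-parameter fit of DMSO-normalized TR-FRET ratios (665/620 nm) reporting phospho-Rb S807/811. Lysates were taken from OVCAR3 cultures treated 24 h with compound (0.3 to 10,000 nM) and incubated 4 h at room temperature with the antibody pair.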
# CDK2 [2] = target: T1, CDK2; assay: High-throughput HTRF measurement of cellular endogenous CDK2 level (degradation, DC50/Dmax) in OVCAR3 cells, 6 h; format: cell-based; conditions: 6 h compound treatment, HTRF total CDK2, read-out: DC50_OVCAR3_6h
# Procedure: High-Throughput Measurement of Cellular Endogenous CDK2
# Effects of compounds on cellular CDK2 level were monitored by a high-throughput HTRF assay.
# To determine half maximal degradation concentration (DC50) and maximum degradation level (Dmax) values of compounds, cellular CDK2 level was measured in 96-well format using HTRF total CDK2 cellular kit (Cat #64CDK2TPEG) from Cisbio.
# On Day 1, OVCAR3 cells were seeded into 96-well tissue-culture treated plates at 20,000 cells/well in 200 μL and incubated overnight at 37° C. in CO2 atmosphere. On Day 2 cells were treated with compounds at concentration ranging from 0.03 to 1,000 nM using HP D300 digital dispenser. 6 hours after compound treatment, cell culture media was removed by flicking the plate and tapping the plate against clean paper towel. Immediately 30 μL 1× lysis buffer was supplemented from the kit and added to each well and the plate is incubated at room temperature on shaker for 30 min. After homogenization by pipetting up and down, 8 μL cell lysate from 96-well cell culture plate was transferred to 384-well small volume white detection plate. 2 μL premixed detection solution was added and the plate is covered with sealer. To prepare the detection solution, d2 conjugated-CDK2 antibody and Eu-cryptate conjugated CDK2 antibody were diluted into detection buffer following manufacturer's instruction. Detection plates were incubated overnight at room temperature and read on ClarioStar (BMG Labtech) in TR-FRET mode (665 nM and 620 nM). The TR-FRET ratio (665 nM/620 nM) was plotted against the compound concentration and normalized to DMSO controls (0% degradation) and lysis buffer controls (100% degradation). Half maximal degradation concentration (DC 50) […] were calculated with a four-parameter logistic fit using GraphPad Prism (version 8; La Jolla, CA).
# In the table below, AA indicates a DC50 of greater than or equal to 0.5 nM but less than 1 nM; A indicates a DC50 of greater than or equal to 1 nM but less than or equal to 10 nM; B indicates a DC50 of greater than 10 nM but less than or equal to 100 nM; C indicates a DC50 of greater than 100 nM but less than or equal to 1 μM; and D indicates a DC50 of greater than 1 μM […] but less than or equal to 5 μM. NT means not tested.
SMILES,IC50 (CDK2 [1]) [nM],DC50 (CDK2 [2]) [nM]
"Cn1nc(N2CCC(=O)NC2=O)c2cc(F)c(C3CCN(Cc4cccc(S(=O)(=O)N5CCC(Nc6ncc(OC(F)F)cn6)CC5)c4)CC3)cc21 [Example 77, 1-(6-(1-(3-((4-((5-(difluoromethoxy)-pyrimidin-2-yl)amino)piperidin-1-yl)sulfonyl)benzyl)piperidin-4-yl)-5-fluoro-1-methyl-1H-indazol-3-yl)dihydropyrimidine-2,4(1H,3H)-dione]",1 to 100,1 to 10
"Cn1c(=O)n(C2CCC(=O)NC2=O)c2cc(F)cc(C3CCN(CC4CCN(c5cc(S(=O)(=O)N6CCC(Nc7ncc(Cl)cn7)CC6)ccc5C#N)CC4)CC3)c21 (stereo not shown) [Example 209, 4-((4-((5-chloropyrimidin-2-yl)amino)piperidin-1-yl)sulfonyl)-2-(4-((4-(1-(2,6-dioxopiperidin-3-yl)-6-fluoro-3-methyl-2-oxo-2,3-dihydro-1H-benzo[d]imidazol-4-yl)piperidin-1-yl)methyl)piperidin-1-yl)benzonitrile]",1 to 100,10 to 100
"O=C1CCC(N2Cc3cc(N4CCN(Cc5cccc(S(=O)(=O)N6CCC(Nc7ncc(OC(F)F)cn7)CC6)c5)CC4)c(F)cc3C2=O)C(=O)N1 (stereo not shown) [Example 74, 3-(5-(4-(3-((4-((5-(difluoromethoxy)-pyrimidin-2-yl)amino)piperidin-1-yl)sulfonyl)benzyl)piperazin-1-yl)-6-fluoro-1-oxoisoindolin-2-yl)piperidine-2,6-dione]",100 to 500,1 to 10
"O=C1CCC(N2Cc3cc(N4CCC(N5CC(Oc6cccc(S(=O)(=O)N7CCC(Nc8ncc(Cl)cn8)CC7)c6)C5)CC4)ccc3C2=O)C(=O)N1 (stereo not shown) [Example 105, 3-(5-(4-(3-(3-((4-((5-chloropyrimidin-2-yl)amino)piperidin-1-yl)sulfonyl)phenoxy)-azetidin-1-yl)piperidin-1-yl)-1-oxoisoindolin-2-yl)piperidine-2,6-dione]",100 to 500,10 to 100
"Cn1nc(N2CCC(=O)NC2=O)c2cc(F)c(C3CCN(CC4CCN(c5cc(S(=O)(=O)N6CCC(Nc7ncc(Cl)cn7)CC6)ccc5C#N)CC4)CC3)cc21 [Example 153, 4-((4-((5-chloropyrimidin-2-yl)amino)piperidin-1-yl)sulfonyl)-2-(4-((4-(3-(2,4-dioxotetrahydropyrimidin-1(2H)-yl)-5-fluoro-1-methyl-1H-indazol-6-yl)piperidin-1-yl)methyl)piperidin-1-yl)benzonitrile]",1 to 100,10 to 100
"O=C1CCC(N2Cc3cc(N4CCN(Cc5cccc(S(=O)(=O)N6CCC(Nc7ncc(C(F)(F)F)cn7)CC6)c5)CC4)ccc3C2=O)C(=O)N1 (stereo not shown) [Example 76, 3-(1-oxo-5-(4-(3-((4-((5-(trifluoromethyl)-pyrimidin-2-yl)amino)piperidin-1-yl)sulfonyl)benzyl)piperazin-1-yl)isoindolin-2-yl)piperidine-2,6-dione]",1 to 100,1 to 10
CC(c1cccc(S(=O)(=O)N2CCC(Nc3ncc(Cl)cn3)CC2)c1)N1CCC(c2ccc3c(N4CCC(=O)NC4=O)nn(C)c3c2)CC1 (stereo not shown) [Example 38],100 to 500,10 to 100
"O=C1CCC(N2Cc3cc(N4CCN(Cc5cccc(S(=O)(=O)N6CCC(Nc7ncc(C(F)(F)F)cn7)CC6)c5)CC4)c(F)cc3C2=O)C(=O)N1 (stereo not shown) [Example 42, 3-(6-fluoro-1-oxo-5-(4-(3-((4-((5-(trifluoro-methyl)pyrimidin-2-yl)amino)piperidin-1-yl)sulfonyl)benzyl)piperazin-1-yl)isoindolin-2-yl)piperidine-2,6-dione]",1 to 100,1 to 10

# Results, then the compound that gave them:
IC50 (CDK2 [1]) [nM],DC50 (CDK2 [2]) [nM],SMILES
1 to 100,10 to 100,"C[C@@H]1CN(CC2CCN(c3cccc(S(=O)(=O)N4CCC(Nc5ncc(Cl)cn5)CC4)c3)CC2)CCN1c1ccc2c(N3CCC(=O)NC3=O)nn(C)c2c1 [Example 116, (R)-1-(6-(4-((1-(3-((4-((5-chloropyrimidin-2-yl)amino)piperidin-1-yl)sulfonyl)phenyl)-piperidin-4-yl)methyl)-2-methylpiperazin-1-yl)-1-methyl-1H-indazol-3-yl)dihydropyrimidine-2,4(1H,3H)-dione]"
100 to 500,10 to 100,"O=C1CCN(c2nn(CC(F)(F)F)c3cc(C4CCN(CC5CCN(c6cccc(S(=O)(=O)N7CCC(Nc8ncc(C(F)(F)F)cn8)CC7)c6)CC5)CC4)ccc23)C(=O)N1 [Example 91, 1-(1-(2,2,2-trifluoroethyl)-6-(1-((1-(3-((4-((5-(trifluoromethyl)pyrimidin-2-yl)amino)piperidin-1-yl)sulfonyl)phenyl)-piperidin-4-yl)methyl)piperidin-4-yl)-1H-indazol-3-yl)dihydropyrimidine-2,4(1H,3H)-dione]"
1 to 100,10 to 100,"Cn1nc(N2CCC(=O)NC2=O)c2ccc(C3CCN(CC4CCN(c5cccc(S(=O)(=O)N6CCC(Nc7ncc(C(F)(F)F)cn7)CC6)c5)CC4)CC3)c(Cl)c21 [Example 89, 1-(7-chloro-1-methyl-6-(1-((1-(3-((4-((5-(trifluoromethyl)pyrimidin-2-yl)amino)-piperidin-1-yl)sulfonyl)phenyl)piperidin-4-yl)methyl)piperidin-4-yl)-1H-indazol-3-yl)dihydropyrimidine-2,4(1H,3H)-dione]"
100 to 500,10 to 100,Cn1nc(N2CCC(=O)NC2=O)c2ccc(C3CCN(Cc4cccc(S(=O)(=O)N5CC[C@H](Nc6ncc(Cl)cn6)[C@H](F)C5)c4)CC3)cc21 [Example 27]
1 to 100,10 to 100,"Cn1nc(N2CCC(=O)NC2=O)c2ccc(C3CCN(Cc4cccc(S(=O)(=O)N5CCC(Nc6ncc(C(F)(F)F)cn6)CC5)c4)CC3)c(F)c21 [Example 2, 1-(7-fluoro-1-methyl-6-(1-(3-((4-((5-(trifluoromethyl)pyrimidin-2-yl)amino)piperidin-1-yl)sulfonyl)benzyl)-piperidin-4-yl)-1H-indazol-3-yl)dihydropyrimidine-2,4(1H,3H)-dione]"
1 to 100,1 to 10,"Cn1c(=O)n(C2CCC(=O)NC2=O)c2ccc(C3CCN(CC4CCN(c5cccc(S(=O)(=O)N6CCC(Nc7ncc(C(F)(F)F)cn7)CC6)c5)CC4)CC3)cc21 (stereo not shown) [Example 177, 3-(3-methyl-2-oxo-5-(1-((1-(3-((4-((5-(trifluoromethyl)pyrimidin-2-yl)amino)piperidin-1-yl)sulfonyl)phenyl)piperidin-4-yl)methyl)piperidin-4-yl)-2,3-dihydro-1H-benzo[d]imidazol-1-yl)piperidine-2,6-dione]"
1 to 100,10 to 100,"Cn1nc(N2CCC(=O)NC2=O)c2ccc(C3CCN(CC4CCN(c5ccc(S(=O)(=O)N6CCC(Nc7ncc(C(F)(F)F)cn7)CC6)cc5)CC4)CC3)cc21 [Example 165, 1-(1-methyl-6-(1-((1-(4-((4-((5-(trifluoromethyl)pyrimidin-2-yl)amino)piperidin-1-yl)sulfonyl)phenyl)piperidin-4-yl)methyl)piperidin-4-yl)-1H-indazol-3-yl)dihydropyrimidine-2,4(1H,3H)-dione]"
1 to 100,1 to 10,"Cn1nc(N2CCC(=O)NC2=O)c2ccc(C3CCN(CC4CCN(c5cccc(S(=O)(=O)N6CC[C@H](Nc7ncc(C(F)(F)F)cn7)[C@H](F)C6)c5)CC4)CC3)cc21 (racemic) [Example 223, Rac-1-(6-(1-((1-(3-(((3R,4S)-3-fluoro-4-((5-(trifluoromethyl)pyrimidin-2-yl)amino)piperidin-1-yl)sulfonyl)phenyl)piperidin-4-yl)methyl)piperidin-4-yl)-1-methyl-1H-indazol-3-yl)dihydropyrimidine-2,4(1H,3H)-dione]"
1 to 100,10 to 100,"Cn1cc(C2CCC(=O)NC2=O)c2ccc(C3CCN(CC4CCN(c5cccc(S(=O)(=O)N6CCC(Nc7ncc(C(F)(F)F)cn7)CC6)c5)CC4)CC3)cc21 (stereo not shown) [Example 251, 3-(1-methyl-6-(1-((1-(3-((4-((5-(trifluoromethyl)pyrimidin-2-yl)amino)piperidin-1-yl)sulfonyl)phenyl)piperidin-4-yl)methyl)piperidin-4-yl)-1H-indol-3-yl)piperidine-2,6-dione]"

# Reference: US20260167623A1 (NIKANG THERAPEUTICS, INC., priority 2022, published 2026)
